How the values were obtained:
Experiment in all cases: Intracellular Ca2+ measurement (fura-2), T-REx-293 cells stably transfected
Assay type in all cases: cell-based
[1] = biological target: T1, E824V mPIEZO1 (Mus musculus, UniProt E2JF22, E824V); details: normalized to the WT Yoda1 maximum response
T1 construct: expressed in transfected cells
Experimental: (§1) T-REx-293 cell line was transfected with pcDNA4/TO-mPIEZO1 constructs using Lipofectamine 2000 (Invitrogen) as above and treated with 200 μg.mL^−1 zeocin (InvivoGen) to select for stably transfected cells. At least two strongly expressing clonal cell lines were established and tested for each variant. All cell lines were maintained in Dulbecco’s Modified Eagle’s medium (Invitrogen) supplemented with 10% heat-inactivated fetal calf serum (Sigma-Aldrich), penicillin (50 units.mL^−1) and streptomycin (0.5 mg.mL^−1) (Sigma-Aldrich) and grown at 37°C in a humidified 5% CO2 incubator.
(§2) For intracellular Ca^2+ assays, cells were plated at 80–90% confluence in 96-well plates 24 h prior to recordings (6–8 × 10^4 cells per well). […] Cells were washed with SBS and incubated at room temperature for 20 min prior to recordings. Equal volumes of 2x concentrated compounds were injected to test for acute channel activation. Pre-incubation with compounds occurred during the 20 min prior to recordings. To expose cell membranes to hypo-osmolality, an equal volume of hypotonic SBS (containing only 35 mM NaCl) was injected onto the cells. Measurements were made on a fluorescence plate reader (Flexstation III, Molecular Devices) at room temperature (21 ± 2°C). Fura-2 was excited at 340 nm and 380 nm and emitted light collected at 510 nm, with measurements shown as the change in fluorescence (F) ratio (ΔF340/380).
(§3) KC41 (Dooku1) was prepared as described.[28] All purchased chemicals and solvents were used without further purification unless otherwise stated. All compounds were at least 95% pure by 1H NMR. 1H Nuclear Magnetic Resonance spectra were recorded at 500 MHz using a Bruker DRX 500 instrument or at 400 MHz using a Bruker DPX 400. 1H spectra are referenced based on the residual proton in the solvent (e.g., the CHCl3, 0.01% in 99.99% CDCl3). Coupling constants (J) are reported to the nearest 0.1 Hz. 13C NMR spectra were recorded at 125 MHz on 500 MHz spectrometers or at 100 MHz on 400 MHz spectrometers. LC-MS was performed on a Bruker Daltronics running a gradient of increasing acetonitrile (5–95%) in H2O both containing 0.1% formic acid at 1 mL.min^−1, on a short path C18 reverse phase column, detecting compounds with both a diode array detector and a Bruker mass spectrum analyser. HRMS was performed on a Bruker Daltonics micrOTOF using positive electrospray ionisation (ES+). Automated column chromatograph was carried out using a Biotage Isolera Four, using either Sfär Silica D or KP-Silica cartridges. HPLC was performed on an Agilent 1290 Infinity Series equipped with a UV detector and Hyperprep C18 reverse phase column. Key to NMR abbreviations: s (singlet), br s (broad singlet) d (doublet), dd (doublet of doublets), ddd (doublet of doublets of doublets), t (triplet), dt (doublet of triples), q (quartet), m (multiplet), ap. t (apparent triplet). For experiments, Yoda1 and its analogues were prepared as 10 mM stock solutions in 100% dimethyl sulfoxide (DMSO) before serial dilution in DMSO and final dilution in aqueous solution. Cells were exposed to 0.1% DMSO for all concentrations of the compounds from 0 to 10 μM.

[2] = biological target: T2, G1994D mPIEZO1 (Mus musculus, UniProt E2JF22, G1994D); details: for Mean (concentration-response, Figure 5g): G1994D
T2 construct: expressed in transfected cells
T2 sequence (E2JF22 whole entry G1994D): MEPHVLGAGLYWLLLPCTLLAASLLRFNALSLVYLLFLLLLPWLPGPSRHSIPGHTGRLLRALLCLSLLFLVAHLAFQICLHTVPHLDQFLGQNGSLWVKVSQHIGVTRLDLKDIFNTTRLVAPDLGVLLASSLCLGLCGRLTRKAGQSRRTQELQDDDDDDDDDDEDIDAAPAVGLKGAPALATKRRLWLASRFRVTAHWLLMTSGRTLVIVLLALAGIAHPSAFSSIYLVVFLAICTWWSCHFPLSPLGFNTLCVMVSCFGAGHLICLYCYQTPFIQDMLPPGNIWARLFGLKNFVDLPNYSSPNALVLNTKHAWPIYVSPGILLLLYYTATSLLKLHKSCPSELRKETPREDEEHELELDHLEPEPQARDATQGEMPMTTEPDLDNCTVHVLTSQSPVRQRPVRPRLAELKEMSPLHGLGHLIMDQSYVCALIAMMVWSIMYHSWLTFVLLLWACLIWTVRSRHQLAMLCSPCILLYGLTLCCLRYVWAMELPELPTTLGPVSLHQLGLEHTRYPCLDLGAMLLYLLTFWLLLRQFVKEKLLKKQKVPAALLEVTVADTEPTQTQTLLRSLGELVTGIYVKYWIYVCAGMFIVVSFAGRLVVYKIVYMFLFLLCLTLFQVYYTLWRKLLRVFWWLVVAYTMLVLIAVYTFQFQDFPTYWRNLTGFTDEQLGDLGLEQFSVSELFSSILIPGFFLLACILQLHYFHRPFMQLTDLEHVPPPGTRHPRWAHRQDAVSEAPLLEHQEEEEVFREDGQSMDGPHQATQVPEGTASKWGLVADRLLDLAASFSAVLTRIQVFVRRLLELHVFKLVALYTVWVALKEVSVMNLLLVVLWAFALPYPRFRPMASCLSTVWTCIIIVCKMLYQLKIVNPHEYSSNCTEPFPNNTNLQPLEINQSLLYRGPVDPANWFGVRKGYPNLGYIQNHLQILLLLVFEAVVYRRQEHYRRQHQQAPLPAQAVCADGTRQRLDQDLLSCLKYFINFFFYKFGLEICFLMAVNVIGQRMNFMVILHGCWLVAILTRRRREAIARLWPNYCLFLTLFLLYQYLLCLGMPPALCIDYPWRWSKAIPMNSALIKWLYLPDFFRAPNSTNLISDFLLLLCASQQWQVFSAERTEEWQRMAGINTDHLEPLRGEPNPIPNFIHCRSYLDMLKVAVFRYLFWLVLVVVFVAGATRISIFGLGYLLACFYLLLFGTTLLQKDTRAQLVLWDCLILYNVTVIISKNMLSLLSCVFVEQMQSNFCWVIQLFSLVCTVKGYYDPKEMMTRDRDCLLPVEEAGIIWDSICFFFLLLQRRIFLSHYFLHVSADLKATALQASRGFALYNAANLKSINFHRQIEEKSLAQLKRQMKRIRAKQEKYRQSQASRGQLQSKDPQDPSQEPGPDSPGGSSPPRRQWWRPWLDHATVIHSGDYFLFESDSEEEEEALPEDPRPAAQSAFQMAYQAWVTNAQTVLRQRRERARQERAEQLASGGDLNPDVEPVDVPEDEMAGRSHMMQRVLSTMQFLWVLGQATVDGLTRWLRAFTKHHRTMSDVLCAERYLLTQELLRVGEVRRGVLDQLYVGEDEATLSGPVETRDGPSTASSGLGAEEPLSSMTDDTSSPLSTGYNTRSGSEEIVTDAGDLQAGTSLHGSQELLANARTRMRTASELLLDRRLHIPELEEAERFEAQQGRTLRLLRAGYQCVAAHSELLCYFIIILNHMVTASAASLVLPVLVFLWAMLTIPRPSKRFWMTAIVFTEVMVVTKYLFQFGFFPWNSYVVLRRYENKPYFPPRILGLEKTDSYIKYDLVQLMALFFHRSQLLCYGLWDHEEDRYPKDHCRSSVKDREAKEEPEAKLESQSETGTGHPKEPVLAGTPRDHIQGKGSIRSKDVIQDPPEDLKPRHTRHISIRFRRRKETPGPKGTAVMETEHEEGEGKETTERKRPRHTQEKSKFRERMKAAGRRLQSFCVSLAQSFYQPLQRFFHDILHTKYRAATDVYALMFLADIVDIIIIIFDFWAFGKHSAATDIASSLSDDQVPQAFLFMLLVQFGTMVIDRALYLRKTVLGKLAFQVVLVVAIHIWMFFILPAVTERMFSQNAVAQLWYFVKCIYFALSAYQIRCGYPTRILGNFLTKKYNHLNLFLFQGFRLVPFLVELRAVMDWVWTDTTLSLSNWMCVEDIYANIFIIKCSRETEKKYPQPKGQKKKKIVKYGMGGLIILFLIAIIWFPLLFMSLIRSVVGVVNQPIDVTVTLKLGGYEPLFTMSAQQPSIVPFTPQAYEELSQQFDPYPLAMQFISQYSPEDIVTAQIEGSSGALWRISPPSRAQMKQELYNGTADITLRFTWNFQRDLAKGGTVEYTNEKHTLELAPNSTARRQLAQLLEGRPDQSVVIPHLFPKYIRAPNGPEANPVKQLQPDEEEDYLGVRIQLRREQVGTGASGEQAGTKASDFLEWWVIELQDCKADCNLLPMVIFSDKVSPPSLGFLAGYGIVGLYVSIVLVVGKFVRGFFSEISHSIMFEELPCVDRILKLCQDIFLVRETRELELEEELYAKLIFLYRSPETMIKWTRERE
Experimental: as §1, §2, §3

[3] = biological target: T3, I2286T mPIEZO1 (Mus musculus, UniProt E2JF22, I2286T)
T3 construct: expressed in transfected cells
T3 sequence (E2JF22 whole entry I2286T): as the sequence (E2JF22 whole entry G1994D) above, with D1994G, I2286T counted along it
Experimental: as §1, §2, §3

[4] = biological target: T4, WT mPIEZO1 (Mus musculus, UniProt E2JF22); details: 1.5 min exposure; fitted Hill equation
T4 construct: expressed in transfected cells
T4 sequence (E2JF22 whole entry): as the sequence (E2JF22 whole entry G1994D) above, with D1994G counted along it
Experimental: as §1, §2, §3

T1 sequence (E2JF22 whole entry E824V): as the sequence (E2JF22 whole entry G1994D) above, with E824V, D1994G counted along it

EC50 [1]: 760 nM
EC50 ([2]; 1.5 min exposure): 1000 nM
Mean (concentration-response, Figure 5g) ([2]; Yoda2b concentration 0.01 µM): -0.02242
Mean (concentration-response, Figure 5g) ([2]; Yoda2b concentration 0.03 µM): 0.00849
Mean (concentration-response, Figure 5g) ([2]; Yoda2b concentration 0.1 µM): 0.01915
Mean (concentration-response, Figure 5g) ([2]; Yoda2b concentration 0.3 µM): 0.1358
Mean (concentration-response, Figure 5g) ([2]; Yoda2b concentration 1 µM): 0.5075
Mean (concentration-response, Figure 5g) ([2]; Yoda2b concentration 3 µM): 0.8675
Mean (concentration-response, Figure 5g) ([2]; Yoda2b concentration 10 µM): 1
Mean (ΔFratio) ([3]; 0.3 µM, time 0 s): 0.00239
Mean (ΔFratio) ([3]; 0.3 µM, time 5 s): -0.00843
Mean (ΔFratio) ([3]; 0.3 µM, time 10 s): 0.00738
Mean (ΔFratio) ([3]; 0.3 µM, time 15 s): -3.95E-05
Mean (ΔFratio) ([3]; 0.3 µM, time 20 s): -9.74E-04
Mean (ΔFratio) ([3]; 0.3 µM, time 25 s): -3.25E-04
Mean (ΔFratio) ([3]; 0.3 µM, time 30 s): -0.07905
Mean (ΔFratio) ([3]; 0.3 µM, time 35 s): -0.08536
Mean (ΔFratio) ([3]; 0.3 µM, time 40 s): 0.2313
Mean (ΔFratio) ([3]; 0.3 µM, time 45 s): 0.4546
Mean (ΔFratio) ([3]; 0.3 µM, time 50 s): 0.5954
Mean (ΔFratio) ([3]; 0.3 µM, time 55 s): 0.6989
Mean (ΔFratio) ([3]; 0.3 µM, time 60 s): 0.7448
Mean (ΔFratio) ([3]; 0.3 µM, time 65 s): 0.7353
Mean (ΔFratio) ([3]; 0.3 µM, time 70 s): 0.7286
Mean (ΔFratio) ([3]; 0.3 µM, time 75 s): 0.7236
Mean (ΔFratio) ([3]; 0.3 µM, time 80 s): 0.681
Mean (ΔFratio) ([3]; 0.3 µM, time 85 s): 0.6794
Mean (ΔFratio) ([3]; 0.3 µM, time 90 s): 0.6567
Mean (ΔFratio) ([3]; 0.3 µM, time 95 s): 0.6006
Mean (ΔFratio) ([3]; 0.3 µM, time 100 s): 0.6101
Mean (ΔFratio) ([3]; 0.3 µM, time 105 s): 0.603
Mean (ΔFratio) ([3]; 0.3 µM, time 110 s): 0.5805
Mean (ΔFratio) ([3]; 0.3 µM, time 115 s): 0.5587
Mean (ΔFratio) ([3]; 0.3 µM, time 120 s): 0.5669
Mean (ΔFratio) ([3]; 0.3 µM, time 125 s): 0.5131
Mean (ΔFratio) ([3]; 0.3 µM, time 130 s): 0.5257
Mean (ΔFratio) ([3]; 3 µM, time 0 s): -0.00226
Mean (ΔFratio) ([3]; 3 µM, time 5 s): 0.01302
Mean (ΔFratio) ([3]; 3 µM, time 10 s): -0.01316
Mean (ΔFratio) ([3]; 3 µM, time 15 s): -0.00422
Mean (ΔFratio) ([3]; 3 µM, time 20 s): 0.00798
Mean (ΔFratio) ([3]; 3 µM, time 25 s): -0.00136
Mean (ΔFratio) ([3]; 3 µM, time 30 s): -0.4575
Mean (ΔFratio) ([3]; 3 µM, time 35 s): -0.0464
Mean (ΔFratio) ([3]; 3 µM, time 40 s): 0.8681
Mean (ΔFratio) ([3]; 3 µM, time 45 s): 1.381
Mean (ΔFratio) ([3]; 3 µM, time 50 s): 1.657
Mean (ΔFratio) ([3]; 3 µM, time 55 s): 1.797
Mean (ΔFratio) ([3]; 3 µM, time 60 s): 1.789
Mean (ΔFratio) ([3]; 3 µM, time 65 s): 1.7806
Mean (ΔFratio) ([3]; 3 µM, time 70 s): 1.778
Mean (ΔFratio) ([3]; 3 µM, time 75 s): 1.702
Mean (ΔFratio) ([3]; 3 µM, time 80 s): 1.669
Mean (ΔFratio) ([3]; 3 µM, time 85 s): 1.657
Mean (ΔFratio) ([3]; 3 µM, time 90 s): 1.535
Mean (ΔFratio) ([3]; 3 µM, time 95 s): 1.511
Mean (ΔFratio) ([3]; 3 µM, time 100 s): 1.421
Mean (ΔFratio) ([3]; 3 µM, time 105 s): 1.3863
Mean (ΔFratio) ([3]; 3 µM, time 110 s): 1.364
Mean (ΔFratio) ([3]; 3 µM, time 115 s): 1.304
Mean (ΔFratio) ([3]; 3 µM, time 120 s): 1.27
Mean (ΔFratio) ([3]; 3 µM, time 125 s): 1.258
Mean (ΔFratio) ([3]; 3 µM, time 130 s): 1.2123
EC50 ([3]; 1.5 min exposure): 710 nM
Mean (concentration-response, Figure 3l) ([3]; 1.5 min exposure, 0.01 µM): 0.00606
Mean (concentration-response, Figure 3l) ([3]; 1.5 min exposure, 0.03 µM): 0.01869
Mean (concentration-response, Figure 3l) ([3]; 1.5 min exposure, 0.1 µM): 0.08252
Mean (concentration-response, Figure 3l) ([3]; 1.5 min exposure, 0.3 µM): 0.2937
Mean (concentration-response, Figure 3l) ([3]; 1.5 min exposure, 1 µM): 0.643
Mean (concentration-response, Figure 3l) ([3]; 1.5 min exposure, 3 µM): 0.8962
Mean (concentration-response, Figure 3l) ([3]; 1.5 min exposure, 10 µM): 1.056
EC50 [4]: 140 nM
Structure (SMILES): O=C(O)c1ccc(-c2cnc(SCc3c(Cl)cccc3Cl)s2)cc1 [Yoda2b, 4-(2-([(2,6-Dichlorophenyl)methyl]sulfanyl)-1,3-thiazol-5-yl)benzoic acid]
side-by-side comparison of channel activation with Yoda1 ([3]; same 96-well plate): more effective at activating I2286T channels than Yoda1
